This passage reports Ratio and Activity results from ChEMBL document CHEMBL1139472, “Synthesis of N-{4-[(2,4-diamino-5-methyl-4,7-dihydro-3H-pyrrolo[2,3-d]pyrimidin-6-yl)thio]benzoyl}-L-glutamic acid and N-{4-[(2-amino-4-oxo-5-methyl-4,7-dihydro-3H-pyrrolo[2,3-d]pyrimidin-6-yl)thio]benzoyl}-L-glutamic acid as dual inhibitors of dihydrofolate reductase and thymidylate synthase and …” (J Med Chem, 2005).

Structures are written as SMILES. The source made the active and inactive calls. The rule behind the calls is not given here.

The target of assay [1] is T1, Folylpolyglutamate synthase, mitochondrial (Homo sapiens) (UniProt Q05932).
T1 sequence (whole entry): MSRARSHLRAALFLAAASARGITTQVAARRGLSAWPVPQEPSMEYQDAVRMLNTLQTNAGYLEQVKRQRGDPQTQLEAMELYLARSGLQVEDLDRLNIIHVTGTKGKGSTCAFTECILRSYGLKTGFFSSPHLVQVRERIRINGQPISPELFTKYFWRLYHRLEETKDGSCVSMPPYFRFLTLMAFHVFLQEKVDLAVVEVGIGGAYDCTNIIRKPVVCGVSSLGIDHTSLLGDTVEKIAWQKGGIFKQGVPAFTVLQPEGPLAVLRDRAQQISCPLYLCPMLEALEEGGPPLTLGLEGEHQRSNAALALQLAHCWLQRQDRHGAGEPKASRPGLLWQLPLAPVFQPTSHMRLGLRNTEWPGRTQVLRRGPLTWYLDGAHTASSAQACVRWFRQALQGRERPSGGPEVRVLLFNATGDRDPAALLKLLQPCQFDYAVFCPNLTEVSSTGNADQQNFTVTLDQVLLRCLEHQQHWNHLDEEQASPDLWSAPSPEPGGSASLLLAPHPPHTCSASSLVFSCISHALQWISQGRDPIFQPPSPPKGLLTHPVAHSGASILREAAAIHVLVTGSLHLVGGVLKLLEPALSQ
The assay can be described thus: Ratio of Vmax relative to […] to Km of human recombinant cytosolic FPGS.

The next assay relates to CCRF-CEM. The assay can be described thus: Growth inhibition of human CCRF-CEM cells at 20 uM. The assay is classed as functional, cell-based.

Consider `Cc1c(Sc2ccc(C(=O)N[C@@H](CCC(=O)O)C(=O)O)cc2)[nH]c2nc(N)[nH]c(=O)c12`, for which the Ratio in assay [1] is 0.06. The outcome with CCRF-CEM was inactive.

As for `Nc1nc(N)c2nc(CNc3ccc(C(=O)N[C@@H](CCC(=O)O)C(=O)O)cc3)cnc2n1`, in assay [1], the Ratio turned out to be 0.17.
